Assay results as given in ChEMBL document CHEMBL3885881, “DrugMatrix”.

Organism: Rattus norvegicus
Test: DrugMatrix - Regimen: Daily Repeat
Type: toxicity, organism-based, Sprague-Dawley
Set-up: regimen Daily Repeat, gender Male, age 6-8 weeks
Conditions: in vivo, po, route oral GAVAGE, vehicle .5 % CMC; for ABSOLUTE BASOPHIL / ABSOLUTE EOSINOPHIL / ABSOLUTE LYMPHOCYTE / ABSOLUTE MONOCYTE / ABSOLUTE SEGMENTED NEUTROPHIL / BASOPHIL / EOSINOPHIL / ERYTHROCYTE COUNT / HEMATOCRIT / HEMOGLOBIN / LEUKOCYTE COUNT / LYMPHOCYTE / MEAN CORPUSCULAR HEMOGLOBIN / MEAN CORPUSCULAR HEMOGLOBIN CONCENTRATION / MEAN CORPUSCULAR VOLUME / MONOCYTE / NEUTROPHIL / NUCLEATED RED BLOOD CELLS / PLATELET COUNT: tissue Blood; for ALANINE AMINOTRANSFERASE / ALBUMIN / ALKALINE PHOSPHATASE / ASPARTATE AMINOTRANSFERASE / BLOOD UREA NITROGEN / CARBON DIOXIDE / CHLORIDE / CHOLESTEROL / CREATINE PHOSPHOKINASE / CREATININE / GLUCOSE / LACTATE DEHYDROGENASE / LIPASE / PHOSPHORUS / POTASSIUM / SODIUM / TOTAL BILIRUBIN / TOTAL PROTEIN / URIC ACID: tissue Plasma
[1] = 30 mg/kg, 120 h, dose level Low, time 5 day
[2] = 2000 mg/kg, 72 h, dose level High, time 3 day
[3] = 2000 mg/kg, 120 h, dose level High, time 5 day

CCOc1cc(N)c(Cl)cc1C(=O)NCC1CN(Cc2ccc(F)cc2)CCO1 (centres undefined) [MOSAPRIDE]
ABSOLUTE BASOPHIL [1]: 0 CELLS/uL
ABSOLUTE EOSINOPHIL [1]: 184 CELLS/uL
ABSOLUTE LYMPHOCYTE [1]: 14085.33 CELLS/uL
ABSOLUTE MONOCYTE [1]: 124 CELLS/uL
ABSOLUTE SEGMENTED NEUTROPHIL [1]: 940 CELLS/uL
BASOPHIL [1]: 0%
EOSINOPHIL [1]: 1.33%
ERYTHROCYTE COUNT [1]: 5.58 x10E6/uL
HEMATOCRIT [1]: 33.97%
HEMOGLOBIN [1]: 13.4 G/DL
LEUKOCYTE COUNT [1]: 15.33 x10E3/uL
LYMPHOCYTE [1]: 91.33%
MEAN CORPUSCULAR HEMOGLOBIN [1]: 24.07 pg
MEAN CORPUSCULAR HEMOGLOBIN CONCENTRATION [1]: 39.43 G/DL
MEAN CORPUSCULAR VOLUME [1]: 61 fL
MONOCYTE [1]: 1%
NEUTROPHIL [1]: 6.33%
NUCLEATED RED BLOOD CELLS [1]: 0 /100WBC
PLATELET COUNT [1]: 1230 x10E3/uL
ALANINE AMINOTRANSFERASE [1]: 47 u/L
ALBUMIN [1]: 4.27 G/DL
ALKALINE PHOSPHATASE [1]: 395.67 u/L
ASPARTATE AMINOTRANSFERASE [1]: 103 u/L
BLOOD UREA NITROGEN [1]: 14.67 mg/dL
CARBON DIOXIDE [1]: 21.33 mmol/L
CHLORIDE [1]: 104.33 MEQ/L
CHOLESTEROL [1]: 72.33 mg/dL
CREATINE PHOSPHOKINASE [1]: 763 u/L
CREATININE [1]: 0.22 mg/dL
GLUCOSE [1]: 150.33 mg/dL
LACTATE DEHYDROGENASE [1]: 650.33 u/L
LIPASE [1]: 9.67 u/L
PHOSPHORUS [1]: 11.1 mg/dL
POTASSIUM [1]: 5.84 MEQ/L
SODIUM [1]: 144.4 MEQ/L
TOTAL BILIRUBIN [1]: 0.23 mg/dL
TOTAL PROTEIN [1]: 5.97 G/DL
URIC ACID [1]: 1.73 mg/dL
ABSOLUTE BASOPHIL [2]: 0 CELLS/uL
ABSOLUTE EOSINOPHIL [2]: 82 CELLS/uL
ABSOLUTE LYMPHOCYTE [2]: 11383.33 CELLS/uL
ABSOLUTE MONOCYTE [2]: 248.67 CELLS/uL
ABSOLUTE SEGMENTED NEUTROPHIL [2]: 719.33 CELLS/uL
BASOPHIL [2]: 0%
EOSINOPHIL [2]: 0.67%
ERYTHROCYTE COUNT [2]: 6.66 x10E6/uL
HEMATOCRIT [2]: 42.47%
HEMOGLOBIN [2]: 16.67 G/DL
LEUKOCYTE COUNT [2]: 12.43 x10E3/uL
LYMPHOCYTE [2]: 91.33%
MEAN CORPUSCULAR HEMOGLOBIN [2]: 25.07 pg
MEAN CORPUSCULAR HEMOGLOBIN CONCENTRATION [2]: 39.27 G/DL
MEAN CORPUSCULAR VOLUME [2]: 63.83 fL
MONOCYTE [2]: 2%
NEUTROPHIL [2]: 6%
NUCLEATED RED BLOOD CELLS [2]: 0 /100WBC
PLATELET COUNT [2]: 1265 x10E3/uL
ALANINE AMINOTRANSFERASE [2]: 92.67 u/L
ALBUMIN [2]: 4.43 G/DL
ALKALINE PHOSPHATASE [2]: 485 u/L
ASPARTATE AMINOTRANSFERASE [2]: 204 u/L
BLOOD UREA NITROGEN [2]: 18 mg/dL
CARBON DIOXIDE [2]: 19 mmol/L
CHLORIDE [2]: 95 MEQ/L
CHOLESTEROL [2]: 234.67 mg/dL
CREATINE PHOSPHOKINASE [2]: 2551 u/L
CREATININE [2]: 0.29 mg/dL
GLUCOSE [2]: 119.67 mg/dL
LACTATE DEHYDROGENASE [2]: 1110.67 u/L
LIPASE [2]: 14.67 u/L
PHOSPHORUS [2]: 14.47 mg/dL
POTASSIUM [2]: 7.66 MEQ/L
SODIUM [2]: 141.13 MEQ/L
TOTAL BILIRUBIN [2]: 0.47 mg/dL
TOTAL PROTEIN [2]: 6.5 G/DL
URIC ACID [2]: 2.7 mg/dL
ABSOLUTE BASOPHIL [3]: 0 CELLS/uL
ABSOLUTE EOSINOPHIL [3]: 63.33 CELLS/uL
ABSOLUTE LYMPHOCYTE [3]: 17542.67 CELLS/uL
ABSOLUTE MONOCYTE [3]: 192.67 CELLS/uL
ABSOLUTE SEGMENTED NEUTROPHIL [3]: 1468 CELLS/uL
BASOPHIL [3]: 0%
EOSINOPHIL [3]: 0.33%
ERYTHROCYTE COUNT [3]: 6.35 x10E6/uL
HEMATOCRIT [3]: 38.03%
HEMOGLOBIN [3]: 14.87 G/DL
LEUKOCYTE COUNT [3]: 19.27 x10E3/uL
LYMPHOCYTE [3]: 91%
MEAN CORPUSCULAR HEMOGLOBIN [3]: 23.37 pg
MEAN CORPUSCULAR HEMOGLOBIN CONCENTRATION [3]: 39.1 G/DL
MEAN CORPUSCULAR VOLUME [3]: 59.8 fL
MONOCYTE [3]: 1%
NEUTROPHIL [3]: 7.67%
NUCLEATED RED BLOOD CELLS [3]: 0 /100WBC
PLATELET COUNT [3]: 1370.33 x10E3/uL
ALANINE AMINOTRANSFERASE [3]: 101.67 u/L
ALBUMIN [3]: 4.07 G/DL
ALKALINE PHOSPHATASE [3]: 465 u/L
ASPARTATE AMINOTRANSFERASE [3]: 89.67 u/L
BLOOD UREA NITROGEN [3]: 18.33 mg/dL
CARBON DIOXIDE [3]: 25.67 mmol/L
CHLORIDE [3]: 100 MEQ/L
CHOLESTEROL [3]: 227.67 mg/dL
CREATINE PHOSPHOKINASE [3]: 489.33 u/L
CREATININE [3]: 0.22 mg/dL
GLUCOSE [3]: 124.33 mg/dL
LACTATE DEHYDROGENASE [3]: 134 u/L
LIPASE [3]: 12.67 u/L
PHOSPHORUS [3]: 12.77 mg/dL
POTASSIUM [3]: 6.56 MEQ/L
SODIUM [3]: 145.37 MEQ/L
TOTAL BILIRUBIN [3]: 0.2 mg/dL
TOTAL PROTEIN [3]: 6.2 G/DL
URIC ACID [3]: 1.77 mg/dL
